# Source: paper PMC9304322, “Targeting retinoic acid receptor alpha-corepressor interaction activates chaperone-mediated autophagy and protects against retinal degeneration” (Nature Communications, 2022)
# Several values for one entry are separate records, joined by “and”; a condition that tells them apart may be missing. Equal values may be shown once.
# Experiments:
# Format in all cases: cell-based, mouse
# [1] = test system: neuroblastoma cell line N2a expressing the KFERQ-PS-Dendra reporter; assay: CMA activity, KFERQ-PS-Dendra reporter in N2a cells; parameters: CMA activity, mean (Fig. S2a): unit not given here
# Method: Cells were transduced with lentivirus carrying the KFERQ-PS-Dendra reporter as before. Cells were photoactivated by exposure to a 3.5 mA (current constant) light emitting diode (LED: Norlux, 405 nm) for 3 min and then plated in glass-bottom 96 well plates. At the desired times, cells were fixed with 4% PFA and imaged using high-content microscopy (Operetta system, Perkin Elmer). Images were quantified using the manufacturer’s software in a minimum of 1,200 cells in 9 independent fields per well. […] This was particularly important in the case of primary human cells where the efficiency of transduction was ~65%. To avoid confounding effects for drug-induced changes in cell volume or adherence to the plate that could bring a fraction of the cells per field outside of focus, we set a threshold to count only […] that have at least 1/10 of the average number of […] detected in the untreated wells for each cell type (3–4 puncta/cell in the case of NIH3T3 and N2a cells and 5 puncta/cell in primary human fibroblasts).
# [2] = test system: NIH3T3; assay: Intracellular proteolysis of long half-life proteins
# Method: Confluent cells were labelled with [^3H]leucine (2μCi/ml) (NEN-PerkinElmer Life Sciences) for 48 h and then extensively washed and maintained in medium with an excess of unlabeled leucine. Proteolysis was calculated from aliquots of the medium taken at different times and precipitated in trichloroacetic acid, as the amount of acid-precipitable radioactivity transformed to acid-soluble radioactivity at each time. Where indicated cell were treated during the chase with […] leupeptin (Sigma, #108975) and […] NH4Cl (to determine lysosomal degradation) or with 100 μm MRT 68921 dihydrochloride (Tocris, #5780) (to determine macroautophagy degradation).
# [3] = test system: CMA network components in NIH3T3 cells; assay: qPCR of CMA network components and CMA activation score; parameters: LAMP2A mRNA level / HSP90AB1 mRNA level / HSP40 mRNA level / RAC1 mRNA level / AKT1 mRNA level / AKT2 mRNA level / CTSA mRNA level / NFATC1 mRNA level / HSC70 mRNA level / NCOR1 mRNA level / NFE2L2 mRNA level / RAB11A mRNA level / RARa mRNA level / HSP90AA1 mRNA level / EEF1A1 mRNA level / RICTOR mRNA level: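 fold of untreated cells after 20 µM for 24 h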; key to CMA activation score: weighted (LAMP-2A ×2), directed (±1) average of CMA network expression; conditions: individual replicate values;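 for AKT1 mRNA level: fold of untreated cells after 20 µM for 24 h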;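 for AKT2 mRNA level: fold of untreated cells after 20 µM for 24 h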;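 for CTSA mRNA level: fold of untreated cells after 20 µM for 24 h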;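 for HSC70 mRNA level: fold of untreated cells after 20 µM for 24 h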;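 for HSP40 mRNA level: fold of untreated cells after 20 µM for 24 h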;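 for HSP90AA1 mRNA level: fold of untreated cells after 20 µM for 24 h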;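 for HSP90AB1 mRNA level: fold of untreated cells after 20 µM for 24 h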;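 for LAMP2A mRNA level: fold of untreated cells after 20 µM for 24 h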;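 for NCOR1 mRNA level: fold of untreated cells after 20 µM for 24 h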;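 for NFATC1 mRNA level: fold of untreated cells after 20 µM for 24 h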;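 for NFE2L2 mRNA level: fold of untreated cells after 20 µM for 24 h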;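 for PHLPP1 mRNA level: fold of untreated cells after 20 µM for 24 h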;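 for RAB11A mRNA level: fold of untreated cells after 20 µM for 24 h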;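 for RAC1 mRNA level: fold of untreated cells after 20 µM for 24 h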;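 for RARa mRNA level: fold of untreated cells after 20 µM for 24 h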
# Method: RNA was extracted from individual retinas or tissue sections (brain, liver). Total RNA from retinas was extracted using TRIzol Reagent (Invitrogen, # 15596-018), and reverse transcription was performed using the High-Capacity cDNA Reverse Transcription Kit (Applied Biosystems, # 4374966) according to the manufacturer’s instructions. Quantitative real-time PCR was performed in a Light Cycler 480 Instrument (Roche) with Taqman LightCycler 480 probes Master Mix (Roche, #4887301001) using Taqman assays (Life Technologies). For cells in culture, RNA was extracted using RNeasy Plus Mini Kit (Qiagen, #74034), and reverse transcription was performed using Superscript III (Invitrogen, #18080051). Quantitative RT-PCR analysis were performed using Power SYBR Green PCR Master Mix (Applied Biosystems, #4368708) on a StepOne Plus Real-Time PCR System (Applied Biosystems). Mm01184405_m1 probe (Thermofisher) was used for rhodopsin and the sequence of all the other probes used for qPCR is included in Supplementary Table 2.
# CMA index[14] was calculated using data set from[23]–[25]. Briefly, each element of the CMA network[13] has attributed a weight. As LAMP-2A is the rate-limiting component of CMA, it was given a weight of 2. Every other element received a weight of 1. Then, every element was attributed direction score that is +1 or −1 based on the known effect of a given element on CMA activity. The score was then calculated as the weighted/ directed average of expression counts of every element of the CMA network.
# [4] = Fig. 2d (left), one sample t test
compound,measurement,setting,value
"Cc1ccc(C2=Nc3ccc(Cl)cc3OC2)cc1 [AR7, reference compound]","CMA activity, mean relative to concentration 0 = 1 (Fig. S2b)","[1]; 12+12w, concentration 0.2",0.9288
same,"CMA activity, mean relative to concentration 0 = 1 (Fig. S2b)","[1]; 12+12w, concentration 2",0.9525
same,"CMA activity, mean relative to concentration 0 = 1 (Fig. S2b)","[1]; 12+12w, concentration 5",0.9471
same,"CMA activity, mean relative to concentration 0 = 1 (Fig. S2b)","[1]; 12+12w, concentration 10",0.8786
same,"CMA activity, mean relative to concentration 0 = 1 (Fig. S2b)","[1]; 12+12w, concentration 20",0.875
same,"CMA activity, mean relative to concentration 0 = 1 (Fig. S2b)","[1]; 12+12w, concentration 30",0.9362
same,"CMA activity, mean (Fig. S2a)","[1]; 12h, concentration 0.02",5.372
same,"CMA activity, mean (Fig. S2a)","[1]; 12h, concentration 0.2",5.3273
same,"CMA activity, mean relative to concentration 0 = 1 (Fig. S2b)","[1]; 12h, concentration 0.2",1.02
same,"CMA activity, mean (Fig. S2a)","[1]; 12h, concentration 2",5.394
same,"CMA activity, mean relative to concentration 0 = 1 (Fig. S2b)","[1]; 12h, concentration 2",1.033
same,"CMA activity, mean (Fig. S2a)","[1]; 12h, concentration 5",6.224
same,"CMA activity, mean relative to concentration 0 = 1 (Fig. S2b)","[1]; 12h, concentration 5",1.192
same,"CMA activity, mean (Fig. S2a)","[1]; 12h, concentration 10",5.944
same,"CMA activity, mean relative to concentration 0 = 1 (Fig. S2b)","[1]; 12h, concentration 10",1.138
same,"CMA activity, mean (Fig. S2a)","[1]; 12h, concentration 20",6.2128
same,"CMA activity, mean relative to concentration 0 = 1 (Fig. S2b)","[1]; 12h, concentration 20",1.19
same,"CMA activity, mean (Fig. S2a)","[1]; 12h, concentration 30",6.043
same,"CMA activity, mean relative to concentration 0 = 1 (Fig. S2b)","[1]; 12h, concentration 30",1.157
same,"CMA activity, mean (Fig. S2a)","[1]; 12h, concentration 40",6.596
same,"CMA activity, mean (Fig. S2a)","[1]; 12h, concentration 50",6.394
same,"CMA activity, mean (Fig. S2a)","[1]; 12h, concentration 60",6.271
same,"CMA activity, mean (Fig. S2a)","[1]; 24h, concentration 0.02",5.48
same,"CMA activity, mean (Fig. S2a)","[1]; 24h, concentration 0.2",5.351
same,"CMA activity, mean relative to concentration 0 = 1 (Fig. S2b)","[1]; 24h, concentration 0.2",0.8724
same,"CMA activity, mean (Fig. S2a)","[1]; 24h, concentration 2",5.879
same,"CMA activity, mean relative to concentration 0 = 1 (Fig. S2b)","[1]; 24h, concentration 2",0.9586
same,"CMA activity, mean (Fig. S2a)","[1]; 24h, concentration 5",6.0743
same,"CMA activity, mean relative to concentration 0 = 1 (Fig. S2b)","[1]; 24h, concentration 5",0.9904
same,"CMA activity, mean (Fig. S2a)","[1]; 24h, concentration 10",6.105
same,"CMA activity, mean relative to concentration 0 = 1 (Fig. S2b)","[1]; 24h, concentration 10",0.9953
same,"CMA activity, mean (Fig. S2a)","[1]; 24h, concentration 20",6.658
same,"CMA activity, mean relative to concentration 0 = 1 (Fig. S2b)","[1]; 24h, concentration 20",1.086
same,"CMA activity, mean (Fig. S2a)","[1]; 24h, concentration 30",7.455
same,"CMA activity, mean relative to concentration 0 = 1 (Fig. S2b)","[1]; 24h, concentration 30",1.2156
same,"CMA activity, mean (Fig. S2a)","[1]; 24h, concentration 40",8.122
same,"CMA activity, mean (Fig. S2a)","[1]; 24h, concentration 50",8.426
same,"CMA activity, mean (Fig. S2a)","[1]; 24h, concentration 60",8.941
same,duration of the increase in degradation of long-lived proteins,"[2]; NIH3T3, 10 μM",sustained only for the first 12 h
same,"Lysosomal proteolysis, Mean (Fig. S3c)",[2]; Time 6,3.18
same,"Lysosomal proteolysis, Mean (Fig. S3c)",[2]; Time 12,5.83
same,AKT1 mRNA level,[3]; [4],1.38 and 0.89 and 1.44 and 0.86 and 1.06 and 1.51 and 1.42
same,AKT2 mRNA level,[3]; [4],1.44 and 0.97 and 1.15 and 0.87 and 1.19 and 1.60 and 1.34
same,CTSA mRNA level,[3]; [4],1.25 and 1.34 and 1.07 and 0.82 and 1.13 and 1.21 and 1.33
same,EEF1A1 mRNA level,[3]; [4],1.17 and 1.49 and 1.26 and 1.78 and 0.79 and 1.54
same,HSC70 mRNA level,[3]; [4],1.32 and 1.34 and 1.36 and 1.12 and 1.37 and 1.41
same,HSP40 mRNA level,[3]; [4],0.98 and 1.05 and 1.10 and 0.85 and 0.99 and 0.72 and 1.06
same,HSP90AA1 mRNA level,[3]; [4],1.28 and 0.87 and 0.85 and 0.56 and 0.80 and 0.78 and 0.86
same,HSP90AB1 mRNA level,[3]; [4],0.93 and 0.89 and 0.92 and 0.63 and 0.94 and 0.80
same,LAMP2A mRNA level,[3]; [4],1.15 and 1.53 and 1.46 and 1.28 and 1.31 and 1.13 and 1.27
same,NCOR1 mRNA level,[3]; [4],1.16 and 1.11 and 1.26 and 0.79 and 0.85 and 0.87 and 1.01
same,NFATC1 mRNA level,[3]; [4],1.04 and 0.72 and 1.34 and 0.83 and 1.03 and 1.25 and 1.28
same,NFE2L2 mRNA level,[3]; [4],1.81 and 0.87 and 0.79 and 0.50 and 0.68 and 0.86 and 1.01
same,PHLPP1 mRNA level,[3]; [4],1.42 and 1.17 and 1.27 and 2.72 and 1.10 and 1.18 and 1.28
same,RAB11A mRNA level,[3]; [4],1.10 and 1.22 and 1.00 and 0.72 and 0.93 and 1.01
same,RAC1 mRNA level,[3]; [4],1.21 and 1.55 and 1.26 and 1.08 and 1.31 and 1.54 and 1.42
same,RARa mRNA level,[3]; [4],0.99 and 0.33 and 1.02 and 0.95 and 0.90 and 0.86
same,RICTOR mRNA level,[3]; [4],0.52 and 1.27 and 0.85 and 0.95 and 1.43
same,CMA activation score,[3]; Fig. 2d (right),-0.03086 and 0.1313 and 0.07179 and -0.1523
